From PMC4575030 (PLoS ONE, 2015) come the findings set out here.

The nature of series [1]: Terminal plasma and brain concentrations after behavioral testing. The series is classed as in vivo, rat.
Another series deals with Aδ-fiber nociceptors. Kind of series: In vivo teased-fiber recording from tibial nerve after CFA, Aδ-fibers. Details: species or system rat. The settings on record: i.v. 2.5 mg. How it is done: A total of 55 adult, male, Sprague–Dawley rats (Harlan, Indianapolis, IN) weighing 300–350 g were used for electrophysiology. To ensure that electrophysiology studies were performed on rats with mechanical hyperalgesia, behavioral measures of mechanical hyperalgesia were obtained before and at 24 h after administration of CFA (and just prior to the electrophysiological studies). Mechanical hyperalgesia was assessed by determining the frequency of paw withdrawal evoked by mechanical stimulation using a 26 g Semmes-Weinstein von Frey monofilament (Stoelting, Wood Dale, IL). Rats were placed on an elevated wire mesh platform under individual plastic cages and acclimated to the testing environment for 30 minutes prior to testing. The monofilament was applied to the mid-plantar surface of the hindpaw ten times for 1–2 s each with an inter-stimulus interval of approximately 5–10 s and the paw withdrawal frequency (percent) was determined. Baseline measures were determined for each rat for three consecutive days prior to injection of CFA. […]
Recordings were made from cutaneous afferent fibers of the left tibial nerve using a teased-fiber approach. […] Teased fibers were placed onto a tungsten wire electrode and action potentials were recorded extracellularly. […] Responses of individual fibers were analyzed off-line using the Spike2 data analysis program (Cambridge Electronic Design, Cambridge, UK). […]

In another series the test system is rat CFA model of pain. Kind of series: CFA-induced thermal hyperalgesia. The following applies: 120 min after dosing, 24 h after CFA. The series is classed as in vivo. As to the method:
CFA-induced thermal hyperalgesia was measured using the Thermal Plantar Analgesia Instrument (Ugo Basile, Italy). Intensity of the radiant heat stimulus was adjusted to achieve a withdrawal latency of approximately 13 s in naïve animals. On test day one, animals were placed on the apparatus in their individual testing chambers with an absorbent towel at the bottom and allowed to habituate for at least 30 minutes. The towel was then removed and animals were allowed to acclimate for at least 15 minutes more. After habituation, animals were placed back in their home cages until the following day. On test day two, animals were placed back in the testing chambers until calm (typically 20 minutes). The thermal device was positioned on the center of the left hind paw and the test was started. The time for the animal to withdraw its paw from the thermal stimulus was recorded. A cut-off of 30 seconds was used to prevent tissue damage. Few trials went past 20 seconds and none past 25 seconds. This procedure was repeated for three trials per animal, each separated by at least 5 min, and trials were averaged to determine baseline withdrawal latencies. After determining baseline measures, each animal received an injection of 50 μl CFA (1:1 emulsion with PBS, Sigma, St. Louis, MO) into the plantar side of the left hind paw with a 26 gauge needle. Animals were then placed back in their home cages until the following day. Approximately 24 h after the CFA injection, withdrawal latencies to heat were determined as described above. Animals were then randomized based on their Post-CFA baseline score and treated with the test compound or vehicle. […] The experimenter was blinded to drug treatment during this assay. Percent return to baseline latency was used as the endpoint of the assay.

In the case of `CC(=O)Nc1cccc(Nc2ncnc(N3CCC(OCc4ccc(OC(F)(F)F)cc4)CC3)n2)c1C` [Compound 52, N-(2-methyl-3-((4-(4-((4-(trifluoromethoxy)benzyl)oxy)-1-piperidinyl)-1,3,5-triazin-2-yl)amino)phenyl)acetamide], in series [1] (brain and plasma, rat, ratio of concentrations measured following the formalin test), the Kp amounted to 0.3. The “Effective [plasma]” value in series [1] (mean terminal plasma concentration at the lowest effective dose in the rat formalin test) worked out at 1.93 µM. Besides, in the series on Aδ-fiber nociceptors, the “Mechanical response thresholds of Aδ-fiber nociceptors” value is given as “Neither vehicle nor compound 52 altered” and the “Rate of ongoing spontaneous activity of Aδ-fiber nociceptors” value is “did not reduce the rate of ongoing spontaneous activity”. In addition, in the series on rat CFA model of pain (10 mg/kg p.o.), the “Average reversal of thermal hyperalgesia compared to baseline” value is recorded as 40%. For the same compound, in the series with rat CFA model of pain (30 mg/kg p.o.), the “Average reversal of thermal hyperalgesia compared to baseline” value came to 53%.
